Key:
Experiment in all cases: relative viability (nuclei count vs DMSO), 5 days (fraction); higher = more cells survive
[1] = compound: CN(C)C[C@@H]1CCn2cc(c3ccccc32)C2=C(C(=O)NC2=O)c2cn(c3ccccc23)CCO1 [Ruboxistaurin] + Cc1nc(Nc2ncc(C(=O)Nc3c(C)cccc3Cl)s2)cc(N2CCN(CCO)CC2)n1 [Dasatinib] (partner 0.075 µM)
Method in brief: (§1)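 Relative viability equals treated-well nuclei counts divided by vehicle-well nuclei counts. Counts came from 4× images of lung cancer cell lines grown in 1536-well plates for 5 days after pin-tool dosing on the day after seeding. Dosing used one drug alone or a fixed anchor-drug dose plus five library-drug doses (not always all listed) in √10 steps, and values are medians of duplicate plates.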

[2] = compound: CN(C)C[C@@H]1CCn2cc(c3ccccc32)C2=C(C(=O)NC2=O)c2cn(c3ccccc23)CCO1 [Ruboxistaurin] + Cc1cc(Nc2cc(N3CCN(C)CC3)nc(Sc3ccc(NC(=O)C4CC4)cc3)n2)n[nH]1 [Tozasertib] (partner 0.1 µM)
Method in brief: as §1

[3] = compound: CN(C)C[C@@H]1CCn2cc(c3ccccc32)C2=C(C(=O)NC2=O)c2cn(c3ccccc23)CCO1 [Ruboxistaurin] + N=C(N)NC(=N)NCCc1ccccc1 [Phenformin] (partner 250 µM)
Method in brief: as §1

Ruboxistaurin + OSI-027 = compound: CN(C)C[C@@H]1CCn2cc(c3ccccc32)C2=C(C(=O)NC2=O)c2cn(c3ccccc23)CCO1 [Ruboxistaurin] + COc1cccc2cc(-c3nc([C@H]4CC[C@H](C(=O)O)CC4)n4ncnc(N)c34)[nH]c12 [OSI-027] (partner 0.5 µM)
Method in brief: as §1

[4] = compound: CN(C)C[C@@H]1CCn2cc(c3ccccc32)C2=C(C(=O)NC2=O)c2cn(c3ccccc23)CCO1 [Ruboxistaurin] + COc1cc2c(Oc3ccc(NC(=O)C4(C(=O)Nc5ccc(F)cc5)CC4)cc3F)ccnc2cc1OCCCN1CCOCC1 [Foretinib] (partner 0.25 µM)
Method in brief: as §1

[5] = compound: CN(C)C[C@@H]1CCn2cc(c3ccccc32)C2=C(C(=O)NC2=O)c2cn(c3ccccc23)CCO1 [Ruboxistaurin] + CCNC(=O)c1noc(-c2cc(C(C)C)c(O)cc2O)c1-c1ccc(CN2CCOCC2)cc1 [Luminespib] (partner 0.01 µM)
Method in brief: as §1

Ruboxistaurin = compound: CN(C)C[C@@H]1CCn2cc(c3ccccc32)C2=C(C(=O)NC2=O)c2cn(c3ccccc23)CCO1 [Ruboxistaurin]
Method in brief: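 Five library-drug doses spaced by √10 were pinned onto vehicle-anchored 1536-well plates of lung cancer cell lines that had been kept overnight at 37 °C. Cells went 5 days without medium change, then were fixed, permeabilised and Hoechst-stained together, imaged at 4× and counted by MetaXpress. Viability is the ratio of treated-well to vehicle-well nuclei, taken as a median over plates. Plates required control CV below 25% and at least one doubling.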

Ruboxistaurin + AZD7762 = compound: CN(C)C[C@@H]1CCn2cc(c3ccccc32)C2=C(C(=O)NC2=O)c2cn(c3ccccc23)CCO1 [Ruboxistaurin] + NC(=O)Nc1cc(-c2cccc(F)c2)sc1C(=O)N[C@H]1CCCNC1 [AZD7762] (partner 0.2 µM)
Method in brief: as §1

[6] = compound: CN(C)C[C@@H]1CCn2cc(c3ccccc32)C2=C(C(=O)NC2=O)c2cn(c3ccccc23)CCO1 [Ruboxistaurin] + Nc1nc2[nH]cc(CCc3ccc(C(=O)N[C@@H](CCC(=O)O)C(=O)O)cc3)c2c(=O)[nH]1 [Pemetrexed] (partner 0.2 µM)
Method in brief: as §1

[7] = compound: CN(C)C[C@@H]1CCn2cc(c3ccccc32)C2=C(C(=O)NC2=O)c2cn(c3ccccc23)CCO1 [Ruboxistaurin] + CC(=O)c1c(C)c2cnc(Nc3ccc(N4CCNCC4)cn3)nc2n(C2CCCC2)c1=O [Palbociclib] (partner 0.5 µM)
Method in brief: as §1

[8] = compound: CN(C)C[C@@H]1CCn2cc(c3ccccc32)C2=C(C(=O)NC2=O)c2cn(c3ccccc23)CCO1 [Ruboxistaurin] + CC(=O)Nc1cccc(-n2c(=O)n(C3CC3)c(=O)c3c(Nc4ccc(I)cc4F)n(C)c(=O)c(C)c32)c1 [Trametinib] (partner 0.02 µM)
Method in brief: as §1

Ruboxistaurin + Olaparib = compound: CN(C)C[C@@H]1CCn2cc(c3ccccc32)C2=C(C(=O)NC2=O)c2cn(c3ccccc23)CCO1 [Ruboxistaurin] + O=C(c1cc(Cc2n[nH]c(=O)c3ccccc23)ccc1F)N1CCN(C(=O)C2CC2)CC1 [Olaparib] (partner 8 µM)
Method in brief: as §1

[9] = compound: CN(C)C[C@@H]1CCn2cc(c3ccccc32)C2=C(C(=O)NC2=O)c2cn(c3ccccc23)CCO1 [Ruboxistaurin] + Nc1ncn([C@H]2C[C@H](O)[C@@H](CO)O2)c(=O)n1 [Decitabine] (partner 2 µM)
Method in brief: as §1

[10] = compound: CN(C)C[C@@H]1CCn2cc(c3ccccc32)C2=C(C(=O)NC2=O)c2cn(c3ccccc23)CCO1 [Ruboxistaurin] + O=C(CCCCCCC(=O)Nc1ccccc1)NO [Vorinostat] (partner 1 µM)
Method in brief: as §1

## NCI-H1623
[1]; first compound 0.08 µM
  relative viability: 0.505
[1]; first compound 0.8 µM
  relative viability: 0.5
[1]; first compound 2.53 µM
  relative viability: 0.525
[1]; first compound 8 µM
  relative viability: 0.531
[2]; first compound 0.08 µM
  relative viability: 0.429
[2]; first compound 0.8 µM
  relative viability: 0.405
[2]; first compound 2.53 µM
  relative viability: 0.459
[2]; first compound 8 µM
  relative viability: 0.436
[3]; first compound 0.08 µM
  relative viability: 0.632
[3]; first compound 0.8 µM
  relative viability: 0.58
[3]; first compound 2.53 µM
  relative viability: 0.693
[3]; first compound 8 µM
  relative viability: 0.563
Ruboxistaurin + OSI-027; first compound 0.08 µM
  relative viability: 0.341
Ruboxistaurin + OSI-027; first compound 0.8 µM
  relative viability: 0.416
Ruboxistaurin + OSI-027; first compound 2.53 µM
  relative viability: 0.423
Ruboxistaurin + OSI-027; first compound 8 µM
  relative viability: 0.374
[4]; first compound 0.08 µM
  relative viability: 0.895
[4]; first compound 0.8 µM
  relative viability: 0.747
[4]; first compound 2.53 µM
  relative viability: 0.933
[4]; first compound 8 µM
  relative viability: 0.837
[5]; first compound 0.08 µM
  relative viability: 0.595
[5]; first compound 0.8 µM
  relative viability: 0.391
[5]; first compound 2.53 µM
  relative viability: 0.639
[5]; first compound 8 µM
  relative viability: 0.401
Ruboxistaurin; 0.08 µM
  relative viability: 1.03
Ruboxistaurin; 0.8 µM
  relative viability: 0.922
Ruboxistaurin; 2.53 µM
  relative viability: 1.01
Ruboxistaurin; 8 µM
  relative viability: 0.977

## NCI-H1648
Ruboxistaurin + AZD7762; first compound 0.08 µM
  relative viability: 0.621
Ruboxistaurin + AZD7762; first compound 0.8 µM
  relative viability: 0.591
Ruboxistaurin + AZD7762; first compound 2.53 µM
  relative viability: 0.835
Ruboxistaurin + AZD7762; first compound 8 µM
  relative viability: 0.865
[2]; first compound 0.08 µM
  relative viability: 0.439
[2]; first compound 0.8 µM
  relative viability: 0.438
[2]; first compound 2.53 µM
  relative viability: 0.482
[2]; first compound 8 µM
  relative viability: 0.792
[6]; first compound 0.08 µM
  relative viability: 0.699
[6]; first compound 0.8 µM
  relative viability: 0.717
[6]; first compound 2.53 µM
  relative viability: 0.612
[6]; first compound 8 µM
  relative viability: 0.894
Ruboxistaurin + OSI-027; first compound 0.08 µM
  relative viability: 0.246
Ruboxistaurin + OSI-027; first compound 0.8 µM
  relative viability: 0.278
Ruboxistaurin + OSI-027; first compound 2.53 µM
  relative viability: 0.291
Ruboxistaurin + OSI-027; first compound 8 µM
  relative viability: 0.274
[7]; first compound 0.08 µM
  relative viability: 0.248
[7]; first compound 0.8 µM
  relative viability: 0.254
[7]; first compound 2.53 µM
  relative viability: 0.285
[7]; first compound 8 µM
  relative viability: 0.247
[8]; first compound 0.08 µM
  relative viability: 0.643
[8]; first compound 0.8 µM
  relative viability: 0.53
[8]; first compound 2.53 µM
  relative viability: 0.455
[8]; first compound 8 µM
  relative viability: 0.681
Ruboxistaurin + Olaparib; first compound 0.08 µM
  relative viability: 1.33
Ruboxistaurin + Olaparib; first compound 0.8 µM
  relative viability: 0.64
Ruboxistaurin + Olaparib; first compound 2.53 µM
  relative viability: 0.797
Ruboxistaurin + Olaparib; first compound 8 µM
  relative viability: 1.22
[9]; first compound 0.08 µM
  relative viability: 0.514
[9]; first compound 0.8 µM
  relative viability: 0.501
[9]; first compound 2.53 µM
  relative viability: 0.44
[9]; first compound 8 µM
  relative viability: 0.536
[10]; first compound 0.08 µM
  relative viability: 0.622
[10]; first compound 0.8 µM
  relative viability: 0.433
[10]; first compound 2.53 µM
  relative viability: 0.425
[10]; first compound 8 µM
  relative viability: 0.634
Ruboxistaurin; 0.08 µM
  relative viability: 0.894
Ruboxistaurin; 0.8 µM
  relative viability: 0.966
Ruboxistaurin; 2.53 µM
  relative viability: 1.11
Ruboxistaurin; 8 µM
  relative viability: 1.15

Source: the supplement of paper PMC10307832
